Reference: US20100074881A1, “MULTIPLE NEBULIZER SYSTEMS” (PARION SCIENCES, Inc., priority 2008, published 2010)

Columns and labels:
[1] = system: airways; conditions: concurrent use of hypertonic saline and amiloride; cited from earlier work
[2] = Solubility of PS552-02 in NaCl solutions; assay type: physicochemical
Excerpt: (§1) A specific example of an application for the dual-nebulizer technology is illustrated in the following example in which the desired co-delivery of two therapeutic agents that act synergistically is not possible due to the incompatibility of these agents in a single formulation. […] However, due to the poor solubility of PS552-02 in NaCl solutions, these two agents cannot be formulated together. Currently, administration of PS552-02 and hypertonic saline would require two independent nebulizer treatments. However, a dual nebulizer system alleviates this issue by allowing both agents to be simultaneously delivered. Compound PS552-02 is represented by the formula: […]

[3] = system: airway surface; test: Airway surface hydration with PS552-02 and hypertonic saline; conditions: PS552-02 together with hypertonic saline (3-7%)
Excerpt: as §1

| solubility in NaCl solutions [2] | Compound | effect on water permeability of airways [1] | airway surface hydration [3] |
| --- | --- | --- | --- |
| – | N=C(N)NC(=O)c1nc(Cl)c(N)nc1N [Amiloride, amiloride] | block the water permeability of airways | – |
| poor | N=C(NCCCCc1ccc(OCC(O)CO)cc1)NC(=O)c1nc(Cl)c(N)nc1N (stereo not drawn) [PS552-02] | – | synergistically enhance |
